Source: ChEMBL document CHEMBL4316621, “A potent seven-membered cyclic BTK (Bruton's tyrosine Kinase) chiral inhibitor conceived by structure-based drug design to lock its bioactive conformation” (Bioorg Med Chem Lett, 2019)
≈ marks a conversion by molar mass, not a printed value.

Legend:
Cytochrome P450 3A4 [1] = target: T1, Cytochrome P450 3A4 (Homo sapiens, UniProt P08684); experiment: Time-dependent inhibition of CYP3A4 (unknown origin); type: ADME
[2] = Intrinsic clearance in human liver microsomes at 1 uM preincubated for 1 hr followed by NADPH addition and measured by LC/MS/MS analysis; type: ADME, Microsome; conditions: read-out: CLH
[3] = Intrinsic clearance in rat liver microsomes at 1 uM preincubated for 1 hr followed by NADPH addition and measured by LC/MS/MS analysis; type: ADME, Microsome; conditions: read-out: CLH
[4] = Solubility of the compound by LYSA; type: physicochemical
[5] = Intrinsic clearance in human hepatocytes assessed per million cells at 1 uM preincubated for 1 hr followed by NADPH addition and measured by LC/MS/MS analysis; type: ADME, cell-based, Hepatocyte; conditions: read-out: CLH
[6] = Intrinsic clearance in rat hepatocytes assessed per million cells at 1 uM preincubated for 1 hr followed by NADPH addition and measured by LC/MS/MS analysis; type: ADME, cell-based, Hepatocyte; conditions: read-out: CLH
Cytochrome P450 3A4 [7] = target: T1, Cytochrome P450 3A4; experiment: Inhibition of CYP3A4 (unknown origin); type: ADME
Cytochrome P450 2D6 = Cytochrome P450 2D6 (Homo sapiens, UniProt P10635); experiment: Inhibition of CYP2D6 (unknown origin); type: ADME
Chain of Cytochrome P450 2D6 (P10635 whole entry): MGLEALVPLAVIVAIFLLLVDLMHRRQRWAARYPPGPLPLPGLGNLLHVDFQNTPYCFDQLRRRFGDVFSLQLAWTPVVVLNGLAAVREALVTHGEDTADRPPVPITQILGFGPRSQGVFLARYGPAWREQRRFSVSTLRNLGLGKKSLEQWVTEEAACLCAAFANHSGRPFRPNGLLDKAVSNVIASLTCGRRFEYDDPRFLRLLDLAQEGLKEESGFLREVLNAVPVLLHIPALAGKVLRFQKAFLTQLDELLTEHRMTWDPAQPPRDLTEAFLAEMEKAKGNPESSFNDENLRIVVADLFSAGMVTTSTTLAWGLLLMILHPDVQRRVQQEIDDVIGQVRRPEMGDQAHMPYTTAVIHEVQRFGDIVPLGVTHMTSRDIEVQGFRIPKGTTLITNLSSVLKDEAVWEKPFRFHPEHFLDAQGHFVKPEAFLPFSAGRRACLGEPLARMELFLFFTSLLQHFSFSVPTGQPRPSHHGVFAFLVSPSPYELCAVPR

Cytochrome P450 2C9 = Cytochrome P450 2C9 (Homo sapiens, UniProt P11712); experiment: Inhibition of CYP2C9 (unknown origin); type: ADME
Chain of Cytochrome P450 2C9 (P11712 whole entry): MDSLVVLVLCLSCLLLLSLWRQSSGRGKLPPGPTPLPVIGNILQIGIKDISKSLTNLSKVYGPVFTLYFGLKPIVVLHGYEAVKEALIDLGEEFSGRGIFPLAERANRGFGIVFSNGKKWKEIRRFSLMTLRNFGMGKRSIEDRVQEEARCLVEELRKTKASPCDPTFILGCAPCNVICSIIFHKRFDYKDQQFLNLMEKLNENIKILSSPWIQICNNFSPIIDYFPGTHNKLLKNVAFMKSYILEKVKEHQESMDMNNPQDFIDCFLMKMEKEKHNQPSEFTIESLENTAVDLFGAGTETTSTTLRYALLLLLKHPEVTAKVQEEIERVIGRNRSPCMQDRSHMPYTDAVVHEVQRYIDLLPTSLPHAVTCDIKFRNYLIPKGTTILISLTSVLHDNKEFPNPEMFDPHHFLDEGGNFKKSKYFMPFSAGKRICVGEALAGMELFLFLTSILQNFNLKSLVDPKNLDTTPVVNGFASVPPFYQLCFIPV

[8] = target: T2, Tyrosine-protein kinase BTK (Homo sapiens, UniProt Q06187); experiment: Inhibition of Kinase Tracer 178 binding to biotinylated-BTK (unknown origin) measured after 18 to 24 hrs by Europium-labeled Streptavidin conjugate based TR-FRET assay
T2 sequence (Q06187 whole entry): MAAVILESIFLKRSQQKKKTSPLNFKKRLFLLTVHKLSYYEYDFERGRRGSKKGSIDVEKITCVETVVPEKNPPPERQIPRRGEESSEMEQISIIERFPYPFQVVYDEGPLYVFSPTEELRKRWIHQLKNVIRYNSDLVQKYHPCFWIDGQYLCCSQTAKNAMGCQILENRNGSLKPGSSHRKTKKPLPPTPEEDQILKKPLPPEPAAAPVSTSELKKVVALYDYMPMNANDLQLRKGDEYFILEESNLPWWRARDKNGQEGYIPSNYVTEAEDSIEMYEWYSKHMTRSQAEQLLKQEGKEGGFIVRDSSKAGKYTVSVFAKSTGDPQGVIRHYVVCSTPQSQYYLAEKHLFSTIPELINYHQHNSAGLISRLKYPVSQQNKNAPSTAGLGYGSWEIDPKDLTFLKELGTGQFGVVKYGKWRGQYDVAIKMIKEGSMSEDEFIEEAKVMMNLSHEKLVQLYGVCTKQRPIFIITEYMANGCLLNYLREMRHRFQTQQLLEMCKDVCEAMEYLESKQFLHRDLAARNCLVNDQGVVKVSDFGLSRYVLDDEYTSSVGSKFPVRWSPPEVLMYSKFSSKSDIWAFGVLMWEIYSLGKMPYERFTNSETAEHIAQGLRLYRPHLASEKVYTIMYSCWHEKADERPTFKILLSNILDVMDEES

[9] = target: T2, Tyrosine-protein kinase BTK; experiment: Inhibition of BTK in goat F(ab')2 anti-human IgM-stimulated human whole blood assessed as suppression of CD69 expression on B cells pretreated for 30 mins followed by goat F(ab')2 anti-human IgM-stimulation and measured after 20 hrs by flow cytometry; type: tissue-based

T1 sequence (P08684 whole entry): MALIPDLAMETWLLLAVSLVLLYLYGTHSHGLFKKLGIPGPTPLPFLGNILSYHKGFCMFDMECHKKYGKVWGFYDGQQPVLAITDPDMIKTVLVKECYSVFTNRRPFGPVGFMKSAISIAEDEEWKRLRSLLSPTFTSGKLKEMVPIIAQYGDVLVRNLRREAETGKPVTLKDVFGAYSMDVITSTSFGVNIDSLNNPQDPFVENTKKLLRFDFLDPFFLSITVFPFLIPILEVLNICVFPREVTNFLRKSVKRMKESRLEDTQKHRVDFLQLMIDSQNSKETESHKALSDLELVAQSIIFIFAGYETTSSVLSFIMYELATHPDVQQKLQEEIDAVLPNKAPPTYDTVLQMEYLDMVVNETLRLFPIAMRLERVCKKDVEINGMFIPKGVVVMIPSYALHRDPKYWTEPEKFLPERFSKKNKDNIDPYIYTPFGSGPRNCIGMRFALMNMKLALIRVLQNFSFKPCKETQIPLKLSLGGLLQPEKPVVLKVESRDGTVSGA

TDI (Cytochrome P450 3A4 [1]) | microsomal CLint at 1 µM [2] | microsomal CLint at 1 µM [3] | solubility [4] | hepatocyte CLint at 1 µM [5] | hepatocyte CLint at 1 µM [6] | INH (Cytochrome P450 3A4 [7]) | INH (Cytochrome P450 2D6) | INH (Cytochrome P450 2C9) | IC50 [8] | IC50 [9] | SMILES
Not Active |  |  |  |  |  |  |  |  |  |  | Cn1c2c(cc(Nc3ccc(C(=O)N4CCOCC4)cn3)c1=O)-c1cccc(-n3ncc4cc(C(C)(C)C)cc(F)c4c3=O)c1C[C@H](O)C2
0% | 29 µL/min/mg | 19 µL/min/mg | 1 µg/mL (≈ 1.5 µM) | 0.3 µL/min/1e6 cells | 3.3 µL/min/1e6 cells | > 7 µM | > 7 µM | > 7 µM |  |  | Cn1c2c(cc(Nc3ccc(C(=O)N4CCOCC4)cn3)c1=O)-c1cccc(-n3ncc4cc(C(C)(C)C)cc(F)c4c3=O)c1CC(O)C2 (racemic)
0% | 20 µL/min/mg | 29 µL/min/mg | 1.1 µg/mL (≈ 1.72 µM) | 0.3 µL/min/1e6 cells | 2 µL/min/1e6 cells | > 10 µM | > 10 µM | > 10 µM | < 1 nM | 23 nM | Cn1nc(-c2cccc(-n3ncc4cc(C(C)(C)C)cc(F)c4c3=O)c2CO)cc(Nc2ccc(C(=O)N3CCOCC3)cn2)c1=O
